One data set concerns A375 cells. Nature of the data set: A-375 cell cytotoxicity assay (CellTiter-Glo). It is filed as cell-based, human. The settings on record: Homo sapiens, A-375; 24 hours, CellTiter-Glo; read-out: Antitarget Potency IC50 (μM) A375. As for the experimental part:
A375 cells were treated with compounds for 24 hours, and then cell viability was measured using the CellTiter-Glo Assay (Promega), a luciferase-based reagent that measures cellular ATP levels. The compounds were tested at different concentrations to determine IC50 values. Compounds that were active in the primary assay and were not toxic below 30 μM at 24 hours were considered for probe development. Data were normalized against DMSO in Genedata Screener's Assay Analyzer.
A-375 cells were maintained in DMEM (10% FBS, 1% Pen-Strep-Glutamine). Cells were fluid changed every 3 days and/or split upon reaching 90% confluency. For secondary assays, cells were thawed at 2 million cells per Falcon T175 flask. After 3 days, cells were passed to a Corning Triple flask (6-8 million cells) and plated after 3 days in the triple flask.
Day 1 • 1. Plate A-375 cells at 3,000 per well in 30 uL media (phenol red free DMEM/10% Fetal Bovine Serum/Penicillin/Streptomycin/L-Glutamine) • 2. Use Corning white 384-well, square, opaque-bottomed plates (Corning Catalog No. 8867BC)
Day 2 • 3. Pin 100 nL compound/DMSO solution (Cybi Well) into assay plates. (For HTS, required sentinel pinning with the positive control, parthenolide (6 mM)) • 4. Incubate 24 hours at 37° C. in Liconic incubator.
(§1) Day 3 • 5. […] Read on the Perkin-Elmer EnVision plate reader with luminescence (LUM) settings for 0.1 sec per well. […]
A general note: In ATP-based viability assays light output follows the ATP content of the culture.

The test system of another data set is TRPM1. The experiment in a line: qPCR assay for TRPM1 expression in SK-MEL-5 cells. The data set is classed as cell-based. The settings on record: Homo sapiens; SK-MEL-5 melanoma cells, up to 35 μM; read-out: TRPM-1 qPCR assay EC50. Background: In qPCR the cycle at which signal appears reflects the starting amount.
The test system of another data set is MALME-3M cells. Nature of the data set: MALME-3M cell cytotoxicity assay (CellTiter-Glo). It is filed as cell-based, human. The following applies: Homo sapiens, Malme-3M, read-out: Target Potency IC50 (μM) MALME-3M; 24 hours, CellTiter-Glo. As to the method:
MALME-3M cells were treated with compounds for 24 hours, and then cell viability was measured using the CellTiter-Glo Assay (Promega), a luciferase-based reagent that measures cellular ATP levels. The compounds were tested at different concentrations to determine IC50 values. Compounds that were active in the primary assay and toxic below 30 μM at 24 hours were considered for probe development. Data were normalized against DMSO in Genedata Screener's Assay Analyzer.
MALME-3M cells were maintained in IMDM (20% FBS, 1% Pen-Strep-Glutamine). Cells were fluid changed every 3 days and/or split upon reaching 100% confluency. For secondary assays, cells were thawed at 6 million cells per Falcon T175 flask. After 3 days, cells were fluid changed, after 3 more days cells were passed to a Corning Triple flask (15-18 million cells) and plated after 3 days in the triple flask.
Day 1 • 1. Plate MALME-3M cells at 3,000 per well in 30 uL media (phenol red free IMDM/10% Fetal Bovine Serum/Penicillin/Streptomycin/L-Glutamine) • 2. Use Corning white 384-well, square, opaque-bottomed plates (Corning Catalog No. 8867BC)
Day 2 • 3. Pin 100 nL compound/DMSO solution (Cybi Well) into assay plates, including the positive control. • 4. Incubate 24 hours at 37° C. in Liconic incubator.
as §1

The next data set addresses T1, Interleukin IL-1 (Mus musculus, UniProt P13504).
T1 construct: Eurofins Panlabs, Inc
Nature of the data set: Radioligand binding, Interleukin IL-1.

The next data set has as its target T2, Melatonin MT1 (Homo sapiens, UniProt P48039).
T2 construct: Eurofins Panlabs, Inc
Nature of the data set: Radioligand binding, Melatonin MT1.

Data set [1] deals with T3, Nicotinic Acetylcholine α1, Bungarotoxin (Homo sapiens, UniProt P02708+P07510+Q07001).
T3 construct: Eurofins Panlabs, Inc
Nature of the data set: biochemical. It is filed as binding. The settings on record: read-out: % Inh.

The target in a further data set is T4, Adrenergic β2 (Homo sapiens, UniProt P07550).
T4 construct: Eurofins Panlabs, Inc. (contract assay)
T4 sequence (P07550 whole entry): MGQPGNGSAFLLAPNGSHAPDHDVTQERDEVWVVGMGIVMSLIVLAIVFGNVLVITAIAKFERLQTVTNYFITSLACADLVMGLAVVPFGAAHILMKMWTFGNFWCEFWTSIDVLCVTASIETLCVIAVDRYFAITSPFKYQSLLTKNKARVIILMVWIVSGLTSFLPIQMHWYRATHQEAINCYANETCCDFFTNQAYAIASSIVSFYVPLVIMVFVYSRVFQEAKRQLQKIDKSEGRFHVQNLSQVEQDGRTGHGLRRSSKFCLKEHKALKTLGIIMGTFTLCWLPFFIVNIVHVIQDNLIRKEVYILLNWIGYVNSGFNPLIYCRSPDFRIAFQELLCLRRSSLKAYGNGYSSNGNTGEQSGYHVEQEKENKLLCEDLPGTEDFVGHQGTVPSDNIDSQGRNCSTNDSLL
Nature of the data set: Radioligand binding, Adrenergic β2.

The target of a further data set is T5, Muscarinic M2 (Homo sapiens, UniProt P08172).
T5 construct: Eurofins Panlabs, Inc
T5 sequence (P08172 whole entry): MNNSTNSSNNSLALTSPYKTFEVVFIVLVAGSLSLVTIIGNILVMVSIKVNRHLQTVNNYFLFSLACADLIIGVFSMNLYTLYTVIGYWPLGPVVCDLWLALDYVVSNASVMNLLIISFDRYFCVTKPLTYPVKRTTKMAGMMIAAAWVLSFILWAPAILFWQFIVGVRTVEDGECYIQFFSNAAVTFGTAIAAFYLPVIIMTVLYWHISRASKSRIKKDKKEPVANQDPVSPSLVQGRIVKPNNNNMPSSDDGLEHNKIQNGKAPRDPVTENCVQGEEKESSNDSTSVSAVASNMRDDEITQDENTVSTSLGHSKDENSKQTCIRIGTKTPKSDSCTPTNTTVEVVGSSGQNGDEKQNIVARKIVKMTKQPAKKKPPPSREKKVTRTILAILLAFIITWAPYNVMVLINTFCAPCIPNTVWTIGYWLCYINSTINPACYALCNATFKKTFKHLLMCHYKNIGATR
Nature of the data set: Radioligand binding, Muscarinic M2.

Data set [2] addresses T6, Serotonin (5-Hydroxytryptamine) 5-HT2B (Homo sapiens, UniProt P41595).
T6 construct: Eurofins Panlabs
Nature of the data set: Radioligand binding, Serotonin (5-Hydroxytryptamine) 5-HT2B.

A further data set deals with T7, GABAB1A (Homo sapiens, UniProt Q9UBS5).
T7 construct: Eurofins Panlabs, Inc
The experiment in a line: Radioligand binding, GABAB1A.

A further data set has as its target T8, Calcium Channel N-Type (Rattus norvegicus, UniProt Q02294).
T8 construct: Eurofins Panlabs, Inc. (contract assay)
The experiment in a line: Radioligand binding, Calcium Channel N-Type.

The target of another data set is T9, Dopamine D4.2 (Homo sapiens, UniProt P21917, DEL265-296).
T9 construct: Eurofins Panlabs, Inc. (contract assay)
T9 sequence (P21917 with tags, fused parts or gaps DEL265-296): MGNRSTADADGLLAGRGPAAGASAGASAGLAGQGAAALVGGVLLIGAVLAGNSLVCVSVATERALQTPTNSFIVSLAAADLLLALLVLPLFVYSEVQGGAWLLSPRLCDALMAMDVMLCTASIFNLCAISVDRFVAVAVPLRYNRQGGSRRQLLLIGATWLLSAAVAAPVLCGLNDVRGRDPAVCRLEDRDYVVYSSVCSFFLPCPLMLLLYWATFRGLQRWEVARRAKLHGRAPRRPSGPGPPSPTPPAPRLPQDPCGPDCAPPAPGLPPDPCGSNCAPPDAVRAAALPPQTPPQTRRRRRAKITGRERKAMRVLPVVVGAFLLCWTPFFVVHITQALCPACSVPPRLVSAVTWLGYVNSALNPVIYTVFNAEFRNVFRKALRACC
Nature of the data set: Radioligand binding, Dopamine D4.2.

A further data set addresses T10, Histamine H3 (Homo sapiens, UniProt Q9Y5N1).
T10 construct: Eurofins Panlabs, Inc
The experiment in a line: Radioligand binding, Histamine H3.

The next data set concerns the target T11, Sigma σ1 (Homo sapiens, UniProt Q99720).
T11 construct: Eurofins Panlabs
Nature of the data set: Radioligand binding, Sigma σ1.

A further data set deals with T12, Prostanoid EP4 (Homo sapiens, UniProt P35408).
T12 construct: Eurofins Panlabs
T12 sequence (P35408 whole entry): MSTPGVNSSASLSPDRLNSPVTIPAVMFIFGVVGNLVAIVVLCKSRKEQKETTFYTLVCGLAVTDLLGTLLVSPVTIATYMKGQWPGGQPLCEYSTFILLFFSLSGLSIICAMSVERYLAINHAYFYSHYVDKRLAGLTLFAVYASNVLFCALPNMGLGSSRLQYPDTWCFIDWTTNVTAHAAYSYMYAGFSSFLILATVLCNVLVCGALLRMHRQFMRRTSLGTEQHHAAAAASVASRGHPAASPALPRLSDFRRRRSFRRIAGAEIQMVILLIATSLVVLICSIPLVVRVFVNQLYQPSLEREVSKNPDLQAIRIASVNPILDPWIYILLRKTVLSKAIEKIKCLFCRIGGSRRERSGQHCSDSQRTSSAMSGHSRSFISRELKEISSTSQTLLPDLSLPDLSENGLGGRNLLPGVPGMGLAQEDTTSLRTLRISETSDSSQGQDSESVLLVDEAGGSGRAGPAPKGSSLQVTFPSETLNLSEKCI
The experiment in a line: Radioligand binding, Prostanoid EP4.

For a further data set, the target named is T13, Estrogen ERα (Homo sapiens, UniProt P03372).
T13 construct: Eurofins Panlabs, Inc. (contract assay)
T13 sequence (P03372 whole entry): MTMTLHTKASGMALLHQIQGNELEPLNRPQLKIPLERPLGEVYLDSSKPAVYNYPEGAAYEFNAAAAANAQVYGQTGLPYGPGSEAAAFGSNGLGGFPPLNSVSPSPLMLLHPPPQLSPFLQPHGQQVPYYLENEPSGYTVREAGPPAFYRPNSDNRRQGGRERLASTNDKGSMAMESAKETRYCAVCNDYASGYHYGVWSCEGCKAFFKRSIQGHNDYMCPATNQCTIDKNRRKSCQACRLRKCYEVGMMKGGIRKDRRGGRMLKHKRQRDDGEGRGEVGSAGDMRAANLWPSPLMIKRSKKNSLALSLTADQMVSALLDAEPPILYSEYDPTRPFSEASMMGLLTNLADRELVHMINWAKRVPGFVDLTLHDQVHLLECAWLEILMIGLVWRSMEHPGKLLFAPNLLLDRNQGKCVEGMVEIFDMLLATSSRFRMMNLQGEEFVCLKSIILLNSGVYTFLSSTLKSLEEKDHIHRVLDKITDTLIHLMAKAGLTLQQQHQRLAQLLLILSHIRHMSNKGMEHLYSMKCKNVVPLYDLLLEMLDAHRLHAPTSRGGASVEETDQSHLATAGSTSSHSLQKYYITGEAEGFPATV
Nature of the data set: Radioligand binding, Estrogen ERα.

The target of another data set is T14, Opiate κ (OP2, KOP) (Homo sapiens, UniProt P41145).
T14 construct: Eurofins Panlabs, Inc
T14 sequence (P41145 whole entry): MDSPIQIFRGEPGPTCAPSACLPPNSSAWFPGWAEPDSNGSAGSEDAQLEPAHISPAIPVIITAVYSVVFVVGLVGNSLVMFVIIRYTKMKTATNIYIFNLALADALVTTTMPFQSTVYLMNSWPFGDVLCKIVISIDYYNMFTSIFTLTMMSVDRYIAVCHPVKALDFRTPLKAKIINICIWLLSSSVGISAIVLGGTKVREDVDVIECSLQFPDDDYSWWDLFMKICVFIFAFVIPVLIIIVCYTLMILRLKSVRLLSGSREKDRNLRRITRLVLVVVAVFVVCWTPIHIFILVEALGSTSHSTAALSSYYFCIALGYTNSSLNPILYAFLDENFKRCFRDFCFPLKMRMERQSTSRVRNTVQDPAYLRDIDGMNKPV
The experiment in a line: Radioligand binding, Opiate κ (OP2, KOP).

For the next data set, the target named is T15, Bradykinin B1 (Homo sapiens, UniProt P46663).
T15 construct: Eurofins Panlabs, Inc. (contract assay)
T15 sequence (P46663 whole entry): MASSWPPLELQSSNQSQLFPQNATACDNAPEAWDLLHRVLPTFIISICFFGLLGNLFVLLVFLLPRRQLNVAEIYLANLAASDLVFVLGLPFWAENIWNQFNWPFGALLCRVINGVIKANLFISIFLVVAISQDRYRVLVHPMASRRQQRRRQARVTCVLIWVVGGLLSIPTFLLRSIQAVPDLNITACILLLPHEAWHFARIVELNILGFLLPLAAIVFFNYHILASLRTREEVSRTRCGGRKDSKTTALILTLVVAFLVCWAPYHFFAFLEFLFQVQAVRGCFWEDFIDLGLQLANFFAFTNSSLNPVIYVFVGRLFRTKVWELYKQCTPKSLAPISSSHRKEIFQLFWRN
The experiment in a line: Radioligand binding, Bradykinin B1.

A further data set concerns the target T16, Potassium Channel hERG (Homo sapiens, UniProt Q12809).
T16 construct: Eurofins Panlabs
The experiment in a line: Radioligand binding, Potassium Channel hERG.

In the next data set the target is T17, Endothelin ETB (Homo sapiens, UniProt P24530).
T17 construct: Eurofins Panlabs, Inc. (contract assay)
T17 sequence (P24530 27-442): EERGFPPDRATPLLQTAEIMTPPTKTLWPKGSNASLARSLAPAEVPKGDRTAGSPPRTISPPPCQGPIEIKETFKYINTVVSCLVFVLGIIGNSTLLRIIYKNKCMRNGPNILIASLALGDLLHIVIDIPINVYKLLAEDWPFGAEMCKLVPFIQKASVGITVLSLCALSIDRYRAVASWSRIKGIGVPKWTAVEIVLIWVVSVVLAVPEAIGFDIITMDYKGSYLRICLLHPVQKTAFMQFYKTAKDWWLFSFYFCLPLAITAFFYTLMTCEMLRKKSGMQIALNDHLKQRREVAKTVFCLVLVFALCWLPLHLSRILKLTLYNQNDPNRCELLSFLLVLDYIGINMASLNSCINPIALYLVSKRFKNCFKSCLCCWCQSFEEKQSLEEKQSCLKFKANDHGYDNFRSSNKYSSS
Nature of the data set: Radioligand binding, Endothelin ETB.

The target of data set [3] is T18, Transporter, Norepinephrine (NET) (Homo sapiens, UniProt P23975).
T18 construct: Eurofins Panlabs
The experiment in a line: Radioligand binding, Transporter, Norepinephrine (NET).

The target in the next data set is T19, Neuropeptide Y Y1 (Homo sapiens, UniProt P25929).
T19 construct: Eurofins Panlabs, Inc
T19 sequence (P25929 whole entry): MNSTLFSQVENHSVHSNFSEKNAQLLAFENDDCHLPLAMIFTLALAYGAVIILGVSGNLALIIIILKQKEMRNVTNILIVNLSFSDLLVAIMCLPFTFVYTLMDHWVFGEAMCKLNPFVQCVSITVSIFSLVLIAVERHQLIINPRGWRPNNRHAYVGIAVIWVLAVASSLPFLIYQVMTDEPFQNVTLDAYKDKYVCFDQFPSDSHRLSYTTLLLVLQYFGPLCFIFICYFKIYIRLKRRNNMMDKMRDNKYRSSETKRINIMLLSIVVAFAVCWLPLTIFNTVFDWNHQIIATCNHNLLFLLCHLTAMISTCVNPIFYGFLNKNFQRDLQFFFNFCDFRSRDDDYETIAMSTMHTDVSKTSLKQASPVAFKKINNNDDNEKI
Nature of the data set: Radioligand binding, Neuropeptide Y Y1.

Some results are limits rather than exact numbers.

T10 sequence (Q9Y5N1 whole entry): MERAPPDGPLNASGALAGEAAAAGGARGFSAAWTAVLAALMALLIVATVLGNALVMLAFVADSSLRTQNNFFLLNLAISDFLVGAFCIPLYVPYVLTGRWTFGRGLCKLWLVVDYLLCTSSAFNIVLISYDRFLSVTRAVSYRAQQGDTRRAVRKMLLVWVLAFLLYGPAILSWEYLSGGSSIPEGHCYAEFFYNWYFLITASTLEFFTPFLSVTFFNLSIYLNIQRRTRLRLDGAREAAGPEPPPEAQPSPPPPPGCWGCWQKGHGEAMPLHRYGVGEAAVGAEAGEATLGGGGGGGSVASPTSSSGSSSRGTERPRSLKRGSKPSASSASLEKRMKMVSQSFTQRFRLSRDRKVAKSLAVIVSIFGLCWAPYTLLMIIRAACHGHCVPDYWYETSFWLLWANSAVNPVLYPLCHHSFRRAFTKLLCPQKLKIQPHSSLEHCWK
T6 sequence (P41595 whole entry): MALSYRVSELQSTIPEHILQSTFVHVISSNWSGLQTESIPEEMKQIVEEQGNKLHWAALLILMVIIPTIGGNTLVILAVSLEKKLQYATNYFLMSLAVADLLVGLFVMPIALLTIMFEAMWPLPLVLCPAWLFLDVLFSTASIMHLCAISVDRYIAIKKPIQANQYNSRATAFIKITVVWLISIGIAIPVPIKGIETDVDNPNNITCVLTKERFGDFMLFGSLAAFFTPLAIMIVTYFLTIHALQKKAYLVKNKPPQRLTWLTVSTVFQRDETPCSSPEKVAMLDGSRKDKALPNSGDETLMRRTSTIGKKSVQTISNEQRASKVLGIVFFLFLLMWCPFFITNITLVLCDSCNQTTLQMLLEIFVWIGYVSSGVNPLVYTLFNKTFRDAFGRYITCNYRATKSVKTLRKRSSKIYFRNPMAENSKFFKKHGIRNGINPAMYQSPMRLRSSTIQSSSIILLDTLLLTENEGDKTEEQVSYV

For `NS(=O)(=O)c1ccc(NC2=CC(=O)c3ccccc3C2=O)cc1` [4-((1,4-dioxo-1,4-dihydronaphthalen-2-yl)amino)benzenesulfonamide], the IC50 (commonly the concentration needed to halve the response being measured) in the data set on A375 cells is above 35 µM; in the data set on MALME-3M cells, 0.88 µM. Besides, the EC50 (commonly the concentration needed to bring the measured effect to its halfway point) with TRPM1 was found to be 160 nM.

`NS(=O)(=O)c1ccc(NC2=CC(=O)c3ccccc3C2=O)cc1` [Example 1, 4-((1,4-Dioxo-1,4-dihydronaphthalen-2-yl)amino)benzenesulfonamide]: the inhibition at 10 µM at Interleukin IL-1 was 6%; at Melatonin MT1, 9%; in [1], -2%; on Adrenergic β2, 10%; on Muscarinic M2, 15%; in data set [2], 37%. The inhibition at 10 µM on GABAB1A was 11%; on Calcium Channel N-Type, -3%; on Dopamine D4.2 it was 4%; at Histamine H3 it was -5%; on Sigma σ1 it was 15%; at Prostanoid EP4, 11%. Besides, the inhibition at 10 µM at Estrogen ERα was 5%; at Opiate κ (OP2, KOP), 19%; at Bradykinin B1, 29%; at Potassium Channel hERG, -4%; on Endothelin ETB it was 17%; in data set [3] it was 8%. Besides, on Neuropeptide Y Y1, the inhibition at 10 µM is -6%.

For the origin of these results see patent publication US9745261B2, “Inhibitors of the MITF molecular pathway” (THE GENERAL HOSPITAL CORPORATION, priority 2013, dated 2017).
